Test results as given in article PMC5482315 (Biochimica et Biophysica Acta, 2017).
Read-outs that look alike come from different tables or passages of the source.

Legend:
[1] = target: T1, VanSA (Enterococcus faecium, UniProt Q06240); test: thermal denaturation of VanSA by far-UV CD (melting temperature); assay type: binding, Enterococcus faecium BM4147; details: 5-fold molar equivalent of ligand; for Melting temperature (Tm) of VanSA in the presence of screened ligands: monitored at 222 nm, 20–95 °C in 5 °C increments, 10 mM Tris–HCl pH 8.0 ligand stocks, 30 min at 20 °C, VanSA alone 44 ± 0.71
Protocol: (§1) Ligand-containing samples were performed by addition of 5-fold molar equivalent of ligand stocks in 10 mM Tris–HCl pH 8.0 (control incubated with equivalent volume of 10 mM Tris–HCl pH 8.0). All samples were incubated at 20 °C for 30 min prior to data collection. All data was analysed using CDApps where the mean residue weight of VanSA was taken to be 113. Unless otherwise stated, all spectra presented are difference spectra where all relevant background buffers, ligands etc. have been subtracted. Data acquired when the HT of the detector (PMT) was equal to or > 600 V were excluded from the analyses. Far-UV measurements (180–260 nm) were commonly collected using 0.5 mg/ml of VanSA with bandwidth of 1 nm and 1 s integration time. Data presented in molar extinction (Δε). Temperature denaturation measurements were collected over the temperatures (20 °C–95 °C, in 5 °C increments) in the absence and presence of ligands. Samples were incubated at the initial 20 °C for 30 min after ligand or solvent addition prior to data acquisition. At each temperature step, reactions were incubated for 2 min prior to data collection (1 scan). A final scan was acquired post-temperature ramp after returning to 20 °C and incubation for 20 min before data acquisition. Data was analysed using CDApps to obtain difference spectra where all controls (buffers, ligands, etc.) had been subtracted. Change in CD (mdeg) at a specific wavelength was transferred to OriginPro® 9 and plotted against the corresponding temperature for fitting using Gibbs-Helmholtz equation derived from Boltzmann distribution, [65] sigmoidal two-state denaturation curve to a Boltzmann distribution and the expression modified to include parameters for fitting of thermal denaturation data for the calculation of the melting temperature (Tm).

[2] = target: T1, VanSA; test: fluorescence emission of VanSA Trp residues with antibiotics; assay type: binding, Enterococcus faecium BM4147; details: excitation 295 nm, equivalent ratio 1:7, 23 °C; n = 3; VanSA alone λmax 334 nm (blue shift)
Protocol: Fluorescence spectroscopy was carried out using a Chirascan-Plus CD Spectrometer (Applied Photophysics) using 1 cm pathlength cell (1 cm × 1 cm, 4 mm × 4 mm window) at 23 °C, 5 nm bandwidth and 600 V, 295 nm excitation wavelength to excite the VanSA Trp residues was applied to the sample and emission monitored between 300 and 500 nm in 1 nm increments. Samples incubated at 20 °C for 30 min prior to data collection.
Data analysis performed using CDApps to obtain values which have been buffer subtracted and dilution-corrected for all components (F values) (protein only, ligand only, protein-ligand). Fo values were determined by normalisation to the initial value for each condition, followed by calculation of F/Fo using OriginPro® 9. Standard deviation (n = 3) shown by error bars.

[3] = cited from earlier work; for Kd: surface plasmon resonance and other studies, read-out: kd for vancomycin binding
From the text: Using model cell wall precursor peptides such as N-acetyl-D-Ala-D-Ala, binding studies in aqueous solution have established that for many glycopeptides, the formation of entropically favourable asymmetric, back-to-back homodimers of the antibiotic, [11], [12] is mediated by sugar-sugar recognition, [13].

[4] = target: T1, VanSA; test: near-UV CD ligand binding screen of VanSA; design: species or system Enterococcus faecium BM4147; details: 5-fold molar equivalent of ligand, qualitative
Protocol: Ligand-containing samples were performed by addition of 5-fold molar equivalent of ligand stocks in 10 mM Tris–HCl pH 8.0 (control incubated with equivalent volume of 10 mM Tris–HCl pH 8.0). All samples were incubated at 20 °C for 30 min prior to data collection. All data was analysed using CDApps where the mean residue weight of VanSA was taken to be 113. Unless otherwise stated, all spectra presented are difference spectra where all relevant background buffers, ligands etc. have been subtracted. Data acquired when the HT of the detector (PMT) was equal to or > 600 V were excluded from the analyses. Far-UV measurements (180–260 nm) were commonly collected using 0.5 mg/ml of VanSA with bandwidth of 1 nm and 1 s integration time. Data presented in molar extinction (Δε). […] Data was analysed using CDApps to obtain difference spectra where all controls (buffers, ligands, etc.) had been subtracted. […]
Near-UV measurements (260–350 nm) were collected using 1 mg/ml of protein using 10 mm pathlength cell, 2 nm bandwidth, 1 nm increments and 1 s integration. […] Change in CD (mdeg) a specific wavelength was monitored, the values transferred to OriginPro® and plotted against respective ligand concentration (M) and fitted with a hill1 binding or biphasic dose response function to determine the kd for binding.

[5] = target: T1, VanSA; test: VanSA autophosphorylation activity assay (Universal Kinase Activity Kit); assay type: biochemical, Enterococcus faecium BM4147; details: n = 3, result in words; for activity of VanSA (autophosphorylation): 5-fold molar equivalent of ligand, 20 min pre-incubation, 40 min with ATP, 25 mM HEPES pH 8.0, OD620 malachite green; for phosphorylation states of VanSA (activity profile): activity profile over 40 min
Protocol: Assays were conducted as per the instructions provided in the R&D Systems Universal Kinase Activity Kit (Catalogue # EA004, R&D), changing the pH to 8.0; therefore all assays were conducted in 25 mM HEPES pH 8.0, 150 mM NaCl, 10 mM MgCl2, and 10 mM CaCl2. Compatibility checks for the activity of CD39L2 were made in the new conditions. A phosphate standard curve in the new assay conditions was used to determine the conversion factor (CF) for CD39L2 by calculating the slope of OD620 × phosphate input (KH2PO4). This CF was used in later calculations to determine the amount of PO4^2 − produced in later experiments. For ligand screens, VanSA (0.2 μg) was incubated in the absence and presence of 5-fold molar equivalent of ligands for 20 min prior to the initiation of autophosphorylation by the addition of ATP; after which autophosphorylation was allowed to proceed for 40 min before reactions were stopped by the addition of 30 μl Malachite Green Reagent A (ammonium molybdate in 3 M sulphuric acid) at t = 60. 100 μl distilled H2O was added to each well, followed by 30 μl of Malachite Reagent B (malachite green oxalate and polyvinyl alcohol) and the colour allowed to develop for 20 min before determining the optical density at 620 nm.

[6] = target: T1, VanSA; test: near-UV CD titration of VanSA with ligand (binding constant); design: species or system Enterococcus faecium BM4147
Protocol: as §1
Near-UV measurements (260–350 nm) were collected using 1 mg/ml of protein using 10 mm pathlength cell, 2 nm bandwidth, 1 nm increments and 1 s integration. Titration experiments were conducted as described for standard near-UV measurements, with the modification of measurements collected after the addition of incremental volumes of ligand stock as described previously, [70]. Change in CD (mdeg) a specific wavelength was monitored, the values transferred to OriginPro® and plotted against respective ligand concentration (M) and fitted with a hill1 binding or biphasic dose response function to determine the kd for binding.

[7] = test system: VanSsc; design: method as in PMID 20383152; details: result in words; cited from earlier work
From the text: The nature of the activating inducer for VanA-type resistance remains unknown. […] Other proposed ligands include the antibiotic-peptidoglycan precursor complex and the accumulating peptidoglycan precursors as a result of vancomycin mode of action, [54]. Here, we describe the use of in vitro approaches to further characterise the ligand-induced activities of VanSA. || Previous studies identified a 4-amino-acid motif (DQGW) from the predicted extracellular binding region of VanSsc (equivalent to the type B VanS receptor in soil actinomycetes) to which a modified vancomycin photoaffinity probe bound.

T1 sequence (Q06240 whole entry): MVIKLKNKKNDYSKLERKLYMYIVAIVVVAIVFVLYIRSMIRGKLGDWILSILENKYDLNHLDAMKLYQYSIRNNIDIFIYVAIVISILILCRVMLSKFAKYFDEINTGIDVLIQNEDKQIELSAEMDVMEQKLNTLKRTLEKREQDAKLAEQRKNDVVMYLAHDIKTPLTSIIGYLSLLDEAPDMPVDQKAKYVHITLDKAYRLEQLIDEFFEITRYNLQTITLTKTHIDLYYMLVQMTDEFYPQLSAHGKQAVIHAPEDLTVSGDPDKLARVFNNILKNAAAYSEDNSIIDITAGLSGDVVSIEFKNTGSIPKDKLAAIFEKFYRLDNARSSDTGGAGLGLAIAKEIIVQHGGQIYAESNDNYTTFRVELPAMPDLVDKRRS

Q: Which “Melting temperature (Tm) of VanSA in the presence of screened ligands” value (shortened to “Melting temperature (Tm) of VanSA”) [1] does the source give for D-Ala-D-Ala here?
A: 48 ± 4.07 °C

Q: Which “Melting temperature (Tm) of VanSA” value [1] does the source give for teicoplanin here?
A: 47 ± 5.08 °C

Q: And the “fluorescence emission λmax of VanSA upon addition of antibiotic” value [2]?
A: 329 nm

Q: What about the “potency compared with vancomycin” value ([3]; in vitro and in vivo, result in words) of the same compound?
A: greater potency than vancomycin

Q: What about the “changes in local tertiary structure (tyrosine/tryptophan region)” value [4] of the same compound?
A: changes to the tyrosine/tryptophan region

Q: And the “activity of VanSA (autophosphorylation)” value [5]?
A: significant increases in the activity

Q: And the “phosphorylation states of VanSA (activity profile)” value [5]?
A: quicker, longer-lived phosphorylation states

Q: And the binding mechanism ([6]; near-UV CD titration)?
A: two-step mechanism

Q: What about the Hill coefficient ([6]; near-UV CD titration, Bi Dose Response function, two-step, first value) of the same compound?
A: 0.97 ± 0.77

Q: And the Hill coefficient ([6]; near-UV CD titration, Bi Dose Response function, two-step, second value)?
A: 0.977 ± 0.76

Q: What about the Kd ([6]; near-UV CD titration, change in CD (mdeg) at 292 nm, BidoseResponse function, two-step mechanism, first value printed in picture, VanSA 1 mg/ml, n = 4, read-out: Binding constant (kd)) of the same compound?
A: 170 µM

Q: And the Kd ([6]; near-UV CD titration, change in CD (mdeg) at 292 nm, BidoseResponse function, two-step mechanism, second value printed in picture, VanSA 1 mg/ml, n = 4, read-out: Binding constant (kd))?
A: 30 µM

Q: Which results are given for CN[C@H](CC(C)C)C(=O)N[C@H]1C(=O)N[C@@H](CC(N)=O)C(=O)N[C@H]2C(=O)N[C@H]3C(=O)N[C@H](C(=O)N[C@H](C(=O)O)c4cc(O)cc(O)c4-c4cc3ccc4O)[C@H](O)c3ccc(c(Cl)c3)Oc3cc2cc(c3O[C@@H]2O[C@H](CO)[C@@H](O)[C@H](O)[C@H]2O[C@H]2C[C@](C)(N)[C@H](O)[C@H](C)O2)Oc2ccc(cc2Cl)[C@H]1O [vancomycin]?
A: thermal stability of VanSA ([1]; far-UV thermal denaturation, result in words): significant increase of the thermal stability; Melting temperature (Tm) of VanSA in the presence of screened ligands [1]: 79 ± 4.04 °C; fluorescence emission λmax of VanSA upon addition of antibiotic [2]: 328 nm; Kd ([3]; ref 17): 1.32 µM; Kd ([3]; ref 18): 2.7 µM; Kd ([3]; ref 19): 3.39 µM; changes in local tertiary structure (tyrosine/tryptophan region) [4]: changes to the tyrosine/tryptophan region; activity of VanSA (autophosphorylation) [5]: significant increases in the activity; phosphorylation states of VanSA (activity profile) [5]: quicker, longer-lived phosphorylation states; Kd [6]: 70 µM; binding mechanism ([6]; near-UV CD titration): one-step process of moderate affinity; Hill coefficient ([6]; near-UV CD titration, Hill 1 function): 1.65 ± 0.84; binding to VanS of actinomycetes [7]: shown to bind in type A equivalent systems of actinomycetes

Q: With CC(=O)N[C@@H]1[C@@H](O)[C@H](O)[C@@H](CO)O[C@H]1O [N-acetylglucosamine, N-Acetyl-D-glucosamine] as the compound, how does the “activity of VanSA (autophosphorylation)” value [5] read?
A: decreases in activity

Q: For “Ala-D-γ-Glu-Lys-D-Ala-D-Ala [peptidoglycan component]”, which “Melting temperature (Tm) of VanSA” value [1] is on record?
A: 51 ± 3.23 °C

Q: Which “Melting temperature (Tm) of VanSA” value [1] does the source give for CC(=O)N[C@H]1C(O)O[C@H](CO)[C@@H](O)[C@@H]1O[C@H](C)C(=O)O (some centres unmarked) [N-acetylmuramic acid, N-Acetylmuramic acid] here?
A: 44 ± 0.63 °C

Q: What about the “activity of VanSA (autophosphorylation)” value [5] of the same compound?
A: decreases in activity
